Laboratory results from patent US20230025435A1, “COMPOSITIONS AND METHODS FOR INCREASING CELLULAR VITALITY AND LONGEVITY AND DECREASING MOLECULAR AGEING” (JUVN3 Holdings, LLC, priority 2020, published 2023).

Tests used:
Assay type in all cases: cell-based
C2C12 cells [1] = assay: Autophagy flux (LC3II/I ratio) in C2C12 cells co-incubated with H2O2 (FIG. 6A); conditions: 24 hours with concomitant 400 uM H2O2, BHB 30 ug/mL, CBD 5 ug/mL, selenium 2 ug/mL
Experimental: (§1) Treatments and cells. 6-hour and 24-hour cell culture treatments were with one of the following compounds: 1. Control or “vehicle” (DMSO+phosphate-buffered saline only); 2. Niagen® (nicotinamide riboside (NR)(5 μg/mL); 3. BHB (beta hydroxybutyrate) (30 ug/mL); 4. CBD (cannabidiol) (5 ug/mL); 5. Olive leaf (5 ug/mL); 6. Dynamine (1 ug/mL); 7. Selenium (2 ug/mL); 8. Tributyrin (5 ug/mL)
(§2) Treatment materials and methods. C2C12 cells were treated with compounds 1-8 as listed above for 6 hours without hydrogen peroxide (H2O2) (termed “unperturbed cells” throughout); or cells were treated with compounds 1-8 above for 24 hours with a concomitant 400 uM hydrogen peroxide (H2O2).
The C2C12 line resembles mature muscle cells given that they are multinucleated and are past the rapid growth/proliferation phase.
Autophagy flux (or activity) was assessed by assaying the LC3II/I ratio. This assay has been deemed the “gold standard” in autophagy monitoring (see e.g., Autophagy, 2007 November-December; 3(6):542-5).

C2C12 cells [2] = assay: Total antioxidant capacity (Trolox equivalent antioxidant capacity, TEAC) in C2C12 cells with H2O2 (FIG. 5B); conditions: 24 hours with concomitant 400 uM H2O2, selenium 2 ug/mL, tributyrin 5 ug/mL
Experimental: Treatments and cells. 6-hour and 24-hour cell culture treatments were with one of the following compounds: 1. Control or “vehicle” (DMSO+phosphate-buffered saline only); 2. […]® (nicotinamide riboside (NR)(5 μg/mL); 3. BHB (beta hydroxybutyrate) (30 ug/mL); 4. CBD (cannabidiol) (5 ug/mL); 5. Olive leaf (5 ug/mL); 6. Dynamine (1 ug/mL); 7. […] Tributyrin (5 ug/mL) Treatment materials and methods. C2C12 cells were treated with compounds 1-8 as listed above for 6 hours without hydrogen peroxide (H2O2) (termed “unperturbed cells” throughout); or cells were treated with compounds 1-8 above for 24 hours with a concomitant 400 uM hydrogen peroxide (H2O2). Total antioxidant capacity was assessed using a Trolox equivalent antioxidant capacity (TEAC) assay.

C2C12 cells [3] = assay: Cellular oxidative stress (4HNE assay) in C2C12 cells with H2O2 (FIG. 6C); conditions: 24 hours with concomitant 400 uM H2O2, BHB 30 ug/mL
Experimental: as §1, §2
Oxidative stress was assessed using the 4HNE assay which is a product of cellular lipid oxidation (see e.g., Am J Physiol Cell Physiol. 2016 Oct. 1; 311(4): C537-C543).

Row | SMILES | autophagy (LC3II/I ratio) (C2C12 cells [1]) | total antioxidant capacity (Trolox) (C2C12 cells [2]) | total antioxidant capacity (Trolox) (C2C12 cells [2]; listed as Selenium) | total antioxidant capacity (Trolox) (C2C12 cells [2]; listed as Tributyrin) | cellular oxidative stress (4HNE) (C2C12 cells [3])
1 | [Se] [selenium, Selenium] | increased autophagy | increase (e.g., restore) total antioxidant activity | increase or restore antioxidant capacity |  | 
2 | CCCC(=O)OCC(COC(=O)CCC)OC(=O)CCC [tributyrin, Tributyrin] |  | increase (e.g., restore) total antioxidant activity |  | increase or restore antioxidant capacity | 
3 | CC(O)CC(=O)O (stereo not drawn) [BHB, beta hydroxybutyrate] | increased autophagy |  |  |  | decrease cellular oxidative stress
4 | C=C(C)[C@@H]1CCC(C)=C[C@H]1c1c(O)cc(CCCCC)cc1O [CBD, cannabidiol] | increased autophagy |  |  |  | 
